Laboratory results: ChEMBL document CHEMBL1201862, “PubChem BioAssay data set” (2004)
The source made the active and inactive calls.

How the values were obtained:
[1] = biological target: Heat shock protein HSP 90-alpha (Homo sapiens, UniProt P07900); type: functional, organism-based
Phospholipase A2 = Phospholipase A2 (Homo sapiens, UniProt P04054); type: functional;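 also: confirmatory dose-response counterscreen on phospholipase A2, testing hits that came from an ultra-high-throughput screen for ATG4B inhibitors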
Genome polyprotein = Genome polyprotein (dengue virus type 2, UniProt P29990); assay: flavivirus cap methylation enzyme inhibition – biochemical, confirmation dose response, primary screen (AID 588689); type: functional
[2] = biological target: Peroxisome proliferator-activated receptor gamma/Nuclear receptor coactivator 3 (Homo sapiens, UniProt P37231); assay: TR-FRET dose response biochemical High Throughput Screening assay for agonists of the steroid receptor coactivator 3 (SRC-3) recruitment by the peroxisome proliferator-activated receptor gamma (PPAR gamma): non-selective agonists. [Related pubchem assays: 1301 (Confirmation screen.), 1048 (Primary screen.)]; type: functional
[3] = biological target: Peroxisome proliferator-activated receptor gamma/Nuclear receptor coactivator 2 (Homo sapiens, UniProt P37231); assay: (§1) TR-FRET dose response biochemical High Throughput Screening assay for agonists of the steroid receptor coactivator 2 (SRC-2) recruitment by the peroxisome proliferator-activated receptor gamma (PPAR gamma): non-selective agonists. [Related pubchem assays: 1297, 1032 ]; type: functional
[4] = biological target: Peroxisome proliferator-activated receptor gamma/Nuclear receptor coactivator 1 (Homo sapiens, UniProt P37231); assay: as §1, with “1 (SRC-1)” for “2 (SRC-2)”, “assays (depositor defined):AID1300, AID1808, AID504735, AID631]” for “assays: 1297, 1032 ]”; type: protein assay
[5] = HEK-293T cell viability reduction – luminescence, B-cell screen hits, cytotoxicity control for BCR NF-kB inhibitor project, dose response (AID 489021); type: functional, cell-based;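 also: HEK-293T cells carrying an NF-kB luciferase reporter; cells exposed to compound for about 14 hours before viability readout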
[6] = biological target: DNA dC->dU-editing enzyme APOBEC-3G (Homo sapiens, UniProt Q9HC16); type: functional;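 also: Dose-response counterscreen measuring inhibition of APOBEC3G DNA deaminase activity, run while confirming APOBEC3A inhibitors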
[7] = biological target: DNA dC->dU-editing enzyme APOBEC-3A (Homo sapiens, UniProt P31941); assay: Dose Response confirmation of small molecule APOBEC3A DNA Deaminase Inhibitors via a fluorescence-based single-stranded DNA deaminase assay. [Related pubchem assays (depositor defined):AID493011, AID493024]; type: functional
Protein RecA = biological target: T1, Protein RecA (Mycobacterium tuberculosis, UniProt P9WHJ3); assay: Fluorescence Cell-Free Homogeneous Dose Retest to Identify Inhibitors of RecA-Intein Splicing Activity. [Related pubchem assays (depositor defined):AID2097, AID2223, AID489010, AID492950]; type: functional
T1 sequence (P9WHJ3 whole entry): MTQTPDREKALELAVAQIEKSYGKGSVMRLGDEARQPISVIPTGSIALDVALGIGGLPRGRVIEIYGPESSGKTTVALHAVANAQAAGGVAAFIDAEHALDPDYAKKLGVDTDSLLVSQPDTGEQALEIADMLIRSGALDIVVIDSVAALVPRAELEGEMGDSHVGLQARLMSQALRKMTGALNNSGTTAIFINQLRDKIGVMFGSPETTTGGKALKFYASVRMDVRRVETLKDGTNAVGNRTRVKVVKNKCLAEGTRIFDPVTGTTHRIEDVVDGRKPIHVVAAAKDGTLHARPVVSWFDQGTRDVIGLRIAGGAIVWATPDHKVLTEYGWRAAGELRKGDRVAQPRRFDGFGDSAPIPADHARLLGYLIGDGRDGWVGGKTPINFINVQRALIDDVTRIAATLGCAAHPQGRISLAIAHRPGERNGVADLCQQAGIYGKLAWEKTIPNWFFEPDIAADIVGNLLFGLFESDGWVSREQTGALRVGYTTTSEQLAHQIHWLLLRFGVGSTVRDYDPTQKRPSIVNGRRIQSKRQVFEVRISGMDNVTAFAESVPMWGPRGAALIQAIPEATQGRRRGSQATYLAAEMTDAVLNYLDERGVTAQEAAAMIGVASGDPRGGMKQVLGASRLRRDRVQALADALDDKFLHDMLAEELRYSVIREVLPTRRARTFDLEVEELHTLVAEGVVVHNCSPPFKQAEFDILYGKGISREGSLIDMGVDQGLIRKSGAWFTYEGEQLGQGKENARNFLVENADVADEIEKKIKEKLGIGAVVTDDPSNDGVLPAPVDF

[8] = biological target: T2, Replicative DNA helicase DnaB (Mycobacterium tuberculosis, UniProt P9WMR3); assay: DnaB intein splicing inhibitors, dose response, biochemical, cell-free fluorescence (AID 449749); type: functional
T2 sequence (P9WMR3 whole entry): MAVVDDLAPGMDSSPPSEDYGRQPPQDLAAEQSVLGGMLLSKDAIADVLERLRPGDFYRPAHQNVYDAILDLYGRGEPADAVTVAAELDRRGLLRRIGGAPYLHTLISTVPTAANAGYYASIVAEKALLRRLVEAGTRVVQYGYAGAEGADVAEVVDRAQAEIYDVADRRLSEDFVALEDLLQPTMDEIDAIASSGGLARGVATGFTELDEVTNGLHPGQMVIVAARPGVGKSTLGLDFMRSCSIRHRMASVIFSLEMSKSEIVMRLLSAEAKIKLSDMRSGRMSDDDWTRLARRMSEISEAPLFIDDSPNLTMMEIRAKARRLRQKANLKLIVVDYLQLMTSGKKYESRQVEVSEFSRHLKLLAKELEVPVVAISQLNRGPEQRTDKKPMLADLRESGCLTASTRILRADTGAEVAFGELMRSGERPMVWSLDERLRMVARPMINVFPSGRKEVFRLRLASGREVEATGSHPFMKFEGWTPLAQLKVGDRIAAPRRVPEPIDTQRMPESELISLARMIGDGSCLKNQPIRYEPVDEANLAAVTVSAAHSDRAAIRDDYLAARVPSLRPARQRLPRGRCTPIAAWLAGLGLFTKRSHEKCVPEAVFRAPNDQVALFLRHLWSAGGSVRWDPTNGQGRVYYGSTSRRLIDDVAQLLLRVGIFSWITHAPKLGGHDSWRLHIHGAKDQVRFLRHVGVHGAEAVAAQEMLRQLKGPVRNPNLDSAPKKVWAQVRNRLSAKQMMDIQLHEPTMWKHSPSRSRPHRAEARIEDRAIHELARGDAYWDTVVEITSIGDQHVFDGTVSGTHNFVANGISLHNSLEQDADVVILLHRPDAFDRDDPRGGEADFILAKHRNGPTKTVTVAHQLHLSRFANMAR

Prothrombin = Prothrombin (Bos taurus, UniProt P00735); assay: thrombin protease inhibitors – biochemical, fluorescence polarization, uHTS hits, dose response (AID 602369); type: functional
[9] = biological target: 26S proteasome non-ATPase regulatory subunit 14 (Homo sapiens, UniProt O00487); assay: inhibition of proteasome subunit RPN11 – biochemical, fluorescence polarization, uHTS hits, confirmation (AID 602368); type: functional
[10] = biological target: 72 kDa type IV collagenase (Homo sapiens, UniProt P08253); assay: Dose Response validation of uHTS RPN11 inhibitor hits using a MMP-2 Fluorescence assay.; type: functional
Nonstructural protein 1 = Nonstructural protein 1 (Influenza A virus, UniProt Q194T2); type: functional, Influenza A virus (A/California/07/2009(H1N1))
[11] = biological target: T3, High affinity choline transporter 1 (Homo sapiens, UniProt Q9GZV3); assay: human choline transporter blockers, potency – cell-based, 5-point CRC, membrane potential dye, dose response (AID 504840); type: functional
T3 sequence (Q9GZV3 whole entry): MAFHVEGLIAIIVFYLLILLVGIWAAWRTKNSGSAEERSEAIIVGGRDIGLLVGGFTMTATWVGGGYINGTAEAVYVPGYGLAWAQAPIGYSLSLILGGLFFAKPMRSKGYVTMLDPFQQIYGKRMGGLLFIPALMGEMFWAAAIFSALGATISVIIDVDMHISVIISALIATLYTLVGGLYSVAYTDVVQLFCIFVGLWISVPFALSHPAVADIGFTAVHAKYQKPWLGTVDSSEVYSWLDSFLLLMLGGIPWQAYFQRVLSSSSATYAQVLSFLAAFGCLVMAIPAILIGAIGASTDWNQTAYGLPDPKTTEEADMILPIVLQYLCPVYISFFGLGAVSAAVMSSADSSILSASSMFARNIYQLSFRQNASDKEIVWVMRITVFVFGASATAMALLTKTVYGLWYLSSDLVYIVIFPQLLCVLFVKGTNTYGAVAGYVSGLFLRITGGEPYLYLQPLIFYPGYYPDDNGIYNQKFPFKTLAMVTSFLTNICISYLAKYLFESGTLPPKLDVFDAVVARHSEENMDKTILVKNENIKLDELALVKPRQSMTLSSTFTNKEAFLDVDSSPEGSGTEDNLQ

[12] = biological target: T4, Zinc finger protein mex-5 (Caenorhabditis elegans, UniProt Q9XUB2); assay: potency of MEX-5 RNA-binding blockers – biochemical, C. elegans, fluorescence polarization, dose response (AID 1960)
T4 sequence (Q9XUB2 whole entry): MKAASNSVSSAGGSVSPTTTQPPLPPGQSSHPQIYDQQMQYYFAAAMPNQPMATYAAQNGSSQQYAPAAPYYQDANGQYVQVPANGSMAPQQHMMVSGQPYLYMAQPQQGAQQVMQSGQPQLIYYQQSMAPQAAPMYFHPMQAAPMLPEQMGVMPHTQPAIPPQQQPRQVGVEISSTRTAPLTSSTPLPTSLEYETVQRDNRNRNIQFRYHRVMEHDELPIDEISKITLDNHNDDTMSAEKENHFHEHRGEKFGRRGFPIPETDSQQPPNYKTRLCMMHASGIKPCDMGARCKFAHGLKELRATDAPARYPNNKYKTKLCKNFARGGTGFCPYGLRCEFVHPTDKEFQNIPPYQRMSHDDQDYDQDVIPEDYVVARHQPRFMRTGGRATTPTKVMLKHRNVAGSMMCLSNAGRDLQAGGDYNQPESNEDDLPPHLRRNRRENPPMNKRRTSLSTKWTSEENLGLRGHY

[13] = biological target: T5, RNA-binding protein pos-1 (Caenorhabditis elegans, UniProt G5EF15); assay: disruptors of C. elegans POS-1 RNA interaction – biochemical, fluorescence polarization, dose response (AID 1964);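 also: purified POS-1 fused to maltose binding protein made in E. coli; potency of compounds blocking POS-1 binding to fluorescent RNA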
T5 sequence (G5EF15 whole entry): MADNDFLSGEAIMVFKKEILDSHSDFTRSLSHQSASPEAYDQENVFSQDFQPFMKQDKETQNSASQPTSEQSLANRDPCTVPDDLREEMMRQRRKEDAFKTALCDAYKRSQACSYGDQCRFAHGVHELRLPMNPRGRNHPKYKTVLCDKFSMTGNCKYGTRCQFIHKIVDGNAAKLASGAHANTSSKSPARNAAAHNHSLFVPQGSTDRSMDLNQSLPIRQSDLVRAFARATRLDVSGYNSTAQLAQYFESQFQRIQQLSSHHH

[14] = biological target: T6, Heat shock factor protein 1 (Mus musculus, UniProt P38532); assay: decrease of HSF1-responsive luciferase luminescence – cell-based, NIH3T3, dose retest, confirmation (AID 2382); type: functional;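 also: NIH3T3 fibroblasts with HSF1-driven luciferase reporter stressed by proteasome inhibitor MG132; luminescence from HSF1-driven luciferase expression after 8 hours of MG132 stress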
T6 sequence (P38532 whole entry): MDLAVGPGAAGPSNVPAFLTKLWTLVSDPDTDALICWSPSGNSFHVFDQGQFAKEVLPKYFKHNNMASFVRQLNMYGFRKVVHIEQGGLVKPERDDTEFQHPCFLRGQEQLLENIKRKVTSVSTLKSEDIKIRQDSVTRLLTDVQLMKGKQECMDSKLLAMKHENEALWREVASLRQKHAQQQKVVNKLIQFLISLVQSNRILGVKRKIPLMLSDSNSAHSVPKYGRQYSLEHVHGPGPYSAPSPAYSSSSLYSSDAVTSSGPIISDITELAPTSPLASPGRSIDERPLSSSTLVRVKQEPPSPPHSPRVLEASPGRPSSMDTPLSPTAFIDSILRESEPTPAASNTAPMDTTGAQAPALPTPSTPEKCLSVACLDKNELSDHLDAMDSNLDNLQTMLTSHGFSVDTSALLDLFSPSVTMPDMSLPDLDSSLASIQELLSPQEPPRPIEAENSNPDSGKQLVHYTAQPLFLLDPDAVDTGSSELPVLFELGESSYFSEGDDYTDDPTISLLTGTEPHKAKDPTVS

[15] = biological target: T7, Carboxy-terminal domain RNA polymerase II polypeptide A small phosphatase 1 (Homo sapiens, UniProt Q9GZU7); assay: CTDSP1 inhibitors, concentration-response, biochemical, absorbance readout, ultra-high-throughput screen actives (AID 540297); type: functional
T7 sequence (Q9GZU7 whole entry): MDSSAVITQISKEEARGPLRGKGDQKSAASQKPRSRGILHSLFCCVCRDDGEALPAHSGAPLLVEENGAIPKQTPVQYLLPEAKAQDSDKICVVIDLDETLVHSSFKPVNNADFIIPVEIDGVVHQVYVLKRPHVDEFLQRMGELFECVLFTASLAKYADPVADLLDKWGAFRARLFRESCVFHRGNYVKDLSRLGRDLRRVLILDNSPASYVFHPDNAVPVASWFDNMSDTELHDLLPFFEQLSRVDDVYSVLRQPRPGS

Sequence of 72 kDa type IV collagenase (P08253 whole entry): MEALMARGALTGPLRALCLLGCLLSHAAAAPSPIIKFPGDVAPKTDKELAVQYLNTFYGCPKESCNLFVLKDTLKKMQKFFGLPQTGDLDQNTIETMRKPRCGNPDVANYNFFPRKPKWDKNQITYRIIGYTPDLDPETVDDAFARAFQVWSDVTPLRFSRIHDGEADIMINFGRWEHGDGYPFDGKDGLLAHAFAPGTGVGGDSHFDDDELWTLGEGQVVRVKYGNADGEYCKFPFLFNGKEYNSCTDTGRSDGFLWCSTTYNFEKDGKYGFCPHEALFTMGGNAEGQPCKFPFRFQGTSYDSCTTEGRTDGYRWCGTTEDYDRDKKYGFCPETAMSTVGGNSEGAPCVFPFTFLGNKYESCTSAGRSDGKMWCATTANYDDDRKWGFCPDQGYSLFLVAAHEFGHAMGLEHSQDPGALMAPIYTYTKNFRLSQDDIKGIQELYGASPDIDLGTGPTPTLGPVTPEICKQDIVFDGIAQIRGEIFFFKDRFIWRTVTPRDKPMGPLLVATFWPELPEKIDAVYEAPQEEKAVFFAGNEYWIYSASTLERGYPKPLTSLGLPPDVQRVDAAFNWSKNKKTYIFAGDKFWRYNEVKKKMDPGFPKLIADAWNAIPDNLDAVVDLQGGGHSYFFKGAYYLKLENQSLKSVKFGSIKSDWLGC
Sequence of 26S proteasome non-ATPase regulatory subunit 14 (O00487 whole entry): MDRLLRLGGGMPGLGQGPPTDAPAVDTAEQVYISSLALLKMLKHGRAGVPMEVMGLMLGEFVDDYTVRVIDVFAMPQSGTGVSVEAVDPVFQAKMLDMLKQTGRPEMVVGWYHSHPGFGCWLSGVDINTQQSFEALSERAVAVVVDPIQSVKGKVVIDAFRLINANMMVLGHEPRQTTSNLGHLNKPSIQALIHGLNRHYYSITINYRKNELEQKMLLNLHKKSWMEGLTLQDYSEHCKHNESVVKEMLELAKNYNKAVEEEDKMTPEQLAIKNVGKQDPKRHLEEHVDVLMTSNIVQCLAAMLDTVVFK
Sequence of Genome polyprotein (P29990 2492-3391 limits assumed): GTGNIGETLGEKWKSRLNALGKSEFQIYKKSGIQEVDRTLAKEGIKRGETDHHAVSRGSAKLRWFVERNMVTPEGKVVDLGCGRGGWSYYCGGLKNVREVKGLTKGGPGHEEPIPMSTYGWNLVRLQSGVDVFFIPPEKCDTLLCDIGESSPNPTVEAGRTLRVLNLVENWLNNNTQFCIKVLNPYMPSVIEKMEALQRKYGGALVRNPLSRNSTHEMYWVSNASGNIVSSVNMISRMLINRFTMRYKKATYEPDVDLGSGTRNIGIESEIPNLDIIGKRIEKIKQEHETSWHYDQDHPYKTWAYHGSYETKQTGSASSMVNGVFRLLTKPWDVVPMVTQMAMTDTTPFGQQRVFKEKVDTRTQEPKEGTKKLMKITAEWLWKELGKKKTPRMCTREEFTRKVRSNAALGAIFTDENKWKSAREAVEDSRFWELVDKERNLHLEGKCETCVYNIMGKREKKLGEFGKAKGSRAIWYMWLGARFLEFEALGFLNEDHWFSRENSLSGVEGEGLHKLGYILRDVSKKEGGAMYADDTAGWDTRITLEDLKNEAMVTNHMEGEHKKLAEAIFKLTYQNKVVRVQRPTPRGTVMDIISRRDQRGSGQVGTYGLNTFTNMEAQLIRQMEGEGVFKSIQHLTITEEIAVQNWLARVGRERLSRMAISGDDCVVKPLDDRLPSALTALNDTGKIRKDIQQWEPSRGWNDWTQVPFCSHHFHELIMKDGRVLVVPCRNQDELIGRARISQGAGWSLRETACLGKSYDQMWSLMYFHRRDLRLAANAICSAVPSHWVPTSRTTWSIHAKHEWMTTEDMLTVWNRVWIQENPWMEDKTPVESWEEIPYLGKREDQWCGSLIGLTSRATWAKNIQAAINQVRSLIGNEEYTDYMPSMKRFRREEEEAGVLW
Sequence of Peroxisome proliferator-activated receptor gamma/Nuclear receptor coactivator 2 (P37231 whole entry): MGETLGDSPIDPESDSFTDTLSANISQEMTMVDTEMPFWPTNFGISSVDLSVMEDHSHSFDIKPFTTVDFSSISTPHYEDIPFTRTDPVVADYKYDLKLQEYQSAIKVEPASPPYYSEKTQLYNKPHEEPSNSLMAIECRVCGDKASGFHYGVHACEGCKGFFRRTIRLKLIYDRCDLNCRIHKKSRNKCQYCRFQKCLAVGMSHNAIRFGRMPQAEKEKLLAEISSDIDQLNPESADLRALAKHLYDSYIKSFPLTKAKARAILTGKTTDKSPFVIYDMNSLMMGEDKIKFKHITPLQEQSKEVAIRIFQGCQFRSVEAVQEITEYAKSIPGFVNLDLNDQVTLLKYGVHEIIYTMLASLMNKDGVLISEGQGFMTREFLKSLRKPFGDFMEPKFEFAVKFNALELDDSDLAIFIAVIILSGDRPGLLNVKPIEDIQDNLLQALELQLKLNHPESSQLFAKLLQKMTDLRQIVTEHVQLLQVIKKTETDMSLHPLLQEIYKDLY
Sequence of Peroxisome proliferator-activated receptor gamma/Nuclear receptor coactivator 2 (Q15596 whole entry, further chain): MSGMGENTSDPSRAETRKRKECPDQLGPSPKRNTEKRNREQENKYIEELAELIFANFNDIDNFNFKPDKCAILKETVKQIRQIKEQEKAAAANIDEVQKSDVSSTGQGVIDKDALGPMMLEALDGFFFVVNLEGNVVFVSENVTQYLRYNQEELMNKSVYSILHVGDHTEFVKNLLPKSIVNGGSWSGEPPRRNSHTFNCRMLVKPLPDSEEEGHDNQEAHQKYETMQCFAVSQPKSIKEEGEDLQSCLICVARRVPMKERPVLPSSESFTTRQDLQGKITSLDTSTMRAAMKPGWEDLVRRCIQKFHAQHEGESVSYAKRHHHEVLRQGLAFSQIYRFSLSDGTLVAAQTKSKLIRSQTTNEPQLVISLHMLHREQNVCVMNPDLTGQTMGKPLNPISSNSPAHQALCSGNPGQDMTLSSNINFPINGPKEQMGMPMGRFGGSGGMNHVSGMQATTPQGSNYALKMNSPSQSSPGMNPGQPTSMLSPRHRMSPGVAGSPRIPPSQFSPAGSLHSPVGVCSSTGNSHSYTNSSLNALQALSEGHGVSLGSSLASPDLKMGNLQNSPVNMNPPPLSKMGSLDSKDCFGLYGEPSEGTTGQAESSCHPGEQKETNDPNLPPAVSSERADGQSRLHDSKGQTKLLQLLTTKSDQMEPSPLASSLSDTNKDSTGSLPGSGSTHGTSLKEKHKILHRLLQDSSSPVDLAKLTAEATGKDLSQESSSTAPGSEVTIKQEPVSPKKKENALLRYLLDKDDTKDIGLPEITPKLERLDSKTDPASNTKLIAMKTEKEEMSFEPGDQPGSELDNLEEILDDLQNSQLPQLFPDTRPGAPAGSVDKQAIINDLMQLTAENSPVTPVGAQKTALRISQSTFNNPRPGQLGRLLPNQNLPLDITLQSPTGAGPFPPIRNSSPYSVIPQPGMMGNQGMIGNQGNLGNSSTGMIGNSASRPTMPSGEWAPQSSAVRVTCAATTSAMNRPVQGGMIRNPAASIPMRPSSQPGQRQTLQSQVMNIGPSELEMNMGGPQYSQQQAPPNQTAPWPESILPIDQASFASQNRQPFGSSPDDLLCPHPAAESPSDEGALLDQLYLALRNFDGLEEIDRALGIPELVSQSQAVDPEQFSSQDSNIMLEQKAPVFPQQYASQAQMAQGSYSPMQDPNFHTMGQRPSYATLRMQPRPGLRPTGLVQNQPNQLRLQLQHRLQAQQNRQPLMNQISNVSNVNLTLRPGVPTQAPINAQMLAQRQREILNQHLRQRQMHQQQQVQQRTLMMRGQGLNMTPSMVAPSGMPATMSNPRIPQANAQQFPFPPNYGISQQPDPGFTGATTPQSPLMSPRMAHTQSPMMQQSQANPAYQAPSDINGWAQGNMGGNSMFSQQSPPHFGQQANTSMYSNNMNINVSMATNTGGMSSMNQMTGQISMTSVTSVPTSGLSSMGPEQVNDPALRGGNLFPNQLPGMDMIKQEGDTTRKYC
Sequence of Nonstructural protein 1 (Q194T2 whole entry): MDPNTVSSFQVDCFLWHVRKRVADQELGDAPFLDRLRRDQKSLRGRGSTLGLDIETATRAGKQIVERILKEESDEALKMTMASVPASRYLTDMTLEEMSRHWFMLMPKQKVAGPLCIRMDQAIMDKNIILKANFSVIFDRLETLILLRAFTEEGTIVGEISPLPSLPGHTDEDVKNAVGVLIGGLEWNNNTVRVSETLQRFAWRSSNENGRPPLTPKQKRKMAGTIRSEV
Sequence of DNA dC->dU-editing enzyme APOBEC-3G (Q9HC16 whole entry): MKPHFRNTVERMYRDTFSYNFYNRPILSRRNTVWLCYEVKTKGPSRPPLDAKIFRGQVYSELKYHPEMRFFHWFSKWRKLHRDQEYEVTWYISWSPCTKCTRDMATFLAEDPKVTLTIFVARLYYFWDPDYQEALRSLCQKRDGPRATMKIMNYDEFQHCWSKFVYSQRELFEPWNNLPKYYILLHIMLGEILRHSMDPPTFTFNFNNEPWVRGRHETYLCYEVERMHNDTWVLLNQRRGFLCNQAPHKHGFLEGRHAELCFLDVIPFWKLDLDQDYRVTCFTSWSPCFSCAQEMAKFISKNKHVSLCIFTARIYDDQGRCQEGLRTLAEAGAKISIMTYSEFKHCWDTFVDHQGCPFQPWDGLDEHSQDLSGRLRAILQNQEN
Sequence of Phospholipase A2 (P04054 whole entry): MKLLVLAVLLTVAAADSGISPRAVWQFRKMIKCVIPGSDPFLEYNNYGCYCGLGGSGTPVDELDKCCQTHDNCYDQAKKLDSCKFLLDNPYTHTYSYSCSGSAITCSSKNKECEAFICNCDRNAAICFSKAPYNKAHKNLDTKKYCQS
Sequence of DNA dC->dU-editing enzyme APOBEC-3A (P31941 whole entry): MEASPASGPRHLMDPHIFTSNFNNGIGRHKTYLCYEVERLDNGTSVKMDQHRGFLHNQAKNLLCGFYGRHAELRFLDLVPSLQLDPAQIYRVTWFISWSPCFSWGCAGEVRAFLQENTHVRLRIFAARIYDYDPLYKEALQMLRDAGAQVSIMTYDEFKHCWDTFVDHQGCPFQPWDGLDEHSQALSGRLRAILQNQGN

CCCOc1ccc2ccccc2c1/C=C1\SC(=O)NC1=O
AC50 [1]: 6.89 µM (active)
IC50 (Phospholipase A2): 15.9 µM (active)

COc1cc(/C=C2/C(=O)NC(=O)N(c3ccccc3)C2=O)ccc1O
IC50 (Genome polyprotein): > 100 µM (active)

CCn1c(=O)cc(SCC(=O)N2CCOCC2)c2ccccc21
EC50 [2]: > 79.4 µM (not active)
EC50 [3]: > 79.4 µM (not active)
EC50 [4]: > 79.4 µM (inactive)
IC50 [5]: > 80 µM (inactive)

O=C(COc1ccccc1/C=C1/NC(=O)NC1=O)Nc1ccccc1
IC50 [6]: 3.26 µM (active)
IC50 [7]: 3.71 µM (active)

CCOc1c(Br)cc(/C=C2\C(=O)N(CCC#N)N=C2C)cc1OC
IC50 (Genome polyprotein): > 100 µM (active)
EC50 (Protein RecA): 1.8 µM (active)
AC50 [8]: 3.43 µM (active)

COc1cc(/C=C2/C(=O)N(c3cccc(Br)c3)N=C2C)cc(OC)c1O
IC50 (Prothrombin): 39 µM (active)
IC50 [9]: 23.1 µM (active)
IC50 [10]: > 100 µM (inactive)
EC50 (Protein RecA): 1.6 µM (active)
IC50 (Nonstructural protein 1): 14.5 µM (active)
IC50 [11]: 13.8 µM (active)
AC50 [8]: 3.93 µM (active)

Cc1ccc(N2C(=O)NC(=O)/C(=C\c3cc(C)n(-c4ccc(C(=O)O)cc4)c3C)C2=O)cc1
IC50 (Genome polyprotein): > 100 µM (active)
EC50 [12]: 6.96 µM (active)
EC50 [13]: > 300 µM (not active)

COc1ccc(CNC(=O)c2nnn(CC(=O)Nc3cc(C)cc(C)c3)c2N)cc1
IC50 (Prothrombin): 63 µM (active)
IC50 [9]: 18.9 µM (active)
IC50 [10]: > 100 µM (inactive)
EC50 [14]: > 195 µM (not active)

COc1ccccc1-c1nnc(S)o1
EC50 [2]: > 79.4 µM (not active)
EC50 [3]: 11.9 µM (not active)
EC50 [4]: 59.1 µM (inactive)

O=C(O)c1cc(/C=C/C(=O)c2cc(F)ccc2O)c2c(c1)COCO2
IC50 (Genome polyprotein): > 100 µM (active)

CSc1ccc(NC(=O)CSc2nc3[nH]c(=O)cc(O)c3s2)cc1
IC50 (Prothrombin): 88.3 µM (active)
IC50 [9]: 68 µM (active)
IC50 [10]: 40.4 µM (active)
IC50 [15]: 4.06 µM (active)
